Several values for one entry are separate records, joined by “and”; a condition that tells them apart may be missing. Equal entries are not always repeated. Where two headings read alike, the source gives them in different places.

We go through one molecule from patent US10471005B2, “Low dose pharmaceutical composition” (TORRENT PHARMACEUTICALS LIMITED, priority 2013, dated 2019).

For one data set, the system named is TNF-α. Briefly: Inflammatory marker mRNA expression in colon, DSS model: TNF-α. Format: in vivo, female BALB/c mice. The note with it: 2.5 mg/kg bid oral day 5 to day 14, relative to placebo. As for the experimental part: (§1) Effect of oral administration of pharmaceutical composition of compound A on expression of interleukin (IL)-10, TNF-α, and interferon (INF)-γ mRNA was assessed in DSS model of colitis.
(§2) Pharmaceutical composition comprising compound A was administered 2.5 mg/kg twice a day from day 5 to day 14 to DSS induced colitis mice (as developed according to example 7) by oral route (PO). Animals were sacrificed on day 14 and colon were processed for whole tissue extract preparation. Expression of interleukin (IL)-10, TNF-α, and interferon (INF)-γ mRNA along with expression of 18S rRNA was monitored employing gene specific primer and probes (Applied Biosystems, Foster City, Calif., USA) by quantitative real-time polymerase chain reaction on ABI 7900 HT (Applied Biosystems, Foster City, Calif., USA). mRNA expression was normalized relative to the expression of 18S rRNA. Placebo group was given similar composition without compound A. The results, as given in FIG. 7, were expressed as fold induction relative to placebo (composition without compound A).

The subject of another data set is TNBS induced colitis. The data set can be described thus: Effectiveness in TNBS induced colitis model. The class given is in vivo, male BALB/c mice. As to the method: (§3) Animal with TNBS (2,4,6 trinitrobenzene sulfonic acid) induced colitis is an established model for IBD. Male BALB/c mice were kept for 16 hours fasting and were administered 0.1 ml TNBS solution (containing 1.5 mg of TNBS in 50% ethanol) rectally 4 cm inside the anus with the help of flexible polyethylene catheter under isoflurane anesthesia. Immediately after TNBS administration, mice were held vertically in a head-down position for an additional 45-60 sec to ensure retention and distribution of TNBS solution within the colon of animal. (Fiorucci et al, Immunity, 2002; Vol. 17; 769-780)
Pharmaceutical composition comprising compound A was administered orally to mice with TNBS induced colitis (as developed according to example 3) at the dose of 1 mg/kg of compound A twice a day, at 10 ml/kg dosing volume. Dosing was initiated a day prior to induction (day −1) of TNBS colitis. Treatment related attenuation in body weight loss, improved disease activity index (DAI, a composite score ranging from 0 to maximum 12 considering the loss in body weight, fecal consistency and presence or absence of occult blood in feces), healthier colon (macroscopy score) and rate of survival were established in the 6 days treated animals (from day −1 to day 4) to check efficacy of compound A. Body weights were monitored daily, DAI was captured on day 2 and day 4 whereas colonic damage (macroscopy score and histopathological score) was scored based on extent of colonic damage. Histopathological evaluation of colonic damage was performed in formalin fixed colon tissue sections, stained with hematoxylin and eosin, at 10× magnification using Leica® DM2500 microscope, after study completion. (*p<0.05 vs placebo/vehicle {composition without compound A}), FIG. 5 and FIG. 8.
Similar to procedures given above in Example 5, pharmaceutical composition of compound A was administered, twice a day, in mice with TNBS induced colitis through intraperitoneal route and oral route. Treated animals were analyzed for improved disease activity index and healthier colon (macroscopy score).

Data set [1] relates to ischemic acute kidney injury (AKI). The note with it: administered intraperitoneally; cited from earlier work.
The test system of another data set is DSS induced colitis. The data set can be described thus: Effectiveness in DSS induced colitis model. The class given is in vivo, female BALB/c mice. The following applies: 1 and 2.5 mg/kg bid oral, day 5 to day 14, vs placebo (5% DSS). As for the experimental part:
5% DSS (MW-36000-50000) dissolved in drinking water was provided to female BALB/c mice for 11 days (Gunther et al, The Journal of Pharmacology and Experimental Therapeutics, 1999; Vol. 292, No. 1; 22-30) followed by DSS free period till day 14. Pharmaceutical composition comprising compound A was administered to these animals from day 5 to day 14 at the dose of 1 and 2.5 mg/kg of compound A twice a day, at 10 ml/kg dosing volume by oral route (PO). Placebo group was given similar composition without compound A. Placebo (composition without compound A) was also administered to healthy animals, which were given only drinking water and represented as placebo (water). Treatment related attenuation in body weight loss, improved disease activity index (DAI, a composite score ranging from 0 to maximum 12 considering the loss in body weight, fecal consistency and presence or absence of occult blood in feces) and colon histopathology (Score) were established in 10 days treated animals (from day 5 to day 14) to check efficacy of compound A. Body weights were monitored daily, DAI was captured every alternate day whereas histopathological evaluation of colonic damage was performed in formalin fixed colon tissue after study completion, similar to example 5. (*p<0.05 vs placebo (5% DSS)) and FIG. 4.

Data set [2] is described as follows: Pharmacokinetic evaluation in TNBS induced colitis model (plasma levels, LC-MS/MS). The class given is in vivo, male BALB/c mice. The note with it: TNBS colitis mice; for Cmax / AUC: male, BALB/c, mouse, 1 mg/kg twice a day, after fifth dose, plasma; for AUC: read-out: AUC0—12. As to the method:
as §3
Pharmaceutical composition comprising compound A was administered to mice with TNBS induced colitis (as developed according to example 3) at the dose of 1 mg/kg of compound A twice a day, at 10 ml/kg dosing volume by intraperitoneal route and peroral route. Dosing was initiated a day prior to induction (day −1) of TNBS colitis. Blood samples of treated animals were collected before administration of fifth dose (0 min) and at various time points after fifth dose administration. Blood samples were centrifuged within one hour of collection at 4000 rpm for 10 min at 4° C. and plasma was separated. These plasma samples were analyzed for compound A levels using LC-MS/MS method. Pharmacokinetic parameters of the compound A were calculated by non-compartmental analysis method using Phoenix WinNolin version 6.2.

Another data set concerns HSP70. The data set can be described thus: HSP70 expression in colon, DSS model of colitis (immunoblotting). Format: in vivo, female BALB/c mice. The following applies: single oral 2.5 mg/kg, six hours after administration, vs placebo. As for the experimental part:
Effect of oral administration of pharmaceutical composition of compound A on expression of HSP70 was checked in DSS model of colitis.
5% DSS (MW-36000-50000) dissolved in drinking water was provided to female BALB/c mice for 5 days. Single dose of compound A was administered to these animals on day 5. Composition comprising compound A was administered at the dose of 2.5 mg/kg, at 10 ml/kg dosing volume by oral route (PO). Placebo group was given similar composition without compound A. Six hours after administration, animals were sacrificed and colon were processed for whole tissue extract preparation. Proteins were separated on SDS-PAGE followed by immunoblotting, employing HSP70 antibody.
A general note: In western blotting, separated proteins are transferred to a membrane and probed.

The test system of the next data set is interferon (INF)-γ. The data set can be described thus: Inflammatory marker mRNA expression in colon, DSS model: INF-γ. Format: in vivo, female BALB/c mice. The note with it: 2.5 mg/kg bid oral day 5 to day 14, relative to placebo. As to the method: as §1, §2
Another data set has as its system interleukin (IL)-10. Briefly: Inflammatory marker mRNA expression in colon, DSS model: IL-10. Format: in vivo, female BALB/c mice. The note with it: 2.5 mg/kg bid oral day 5 to day 14, relative to placebo. As to the method: as §1, §2
Data set [3] in a line: Excretion of compound A in feces, DSS induced colitis model. The class given is in vivo, female BALB/c mice. The following applies: for dose excreted: female, BALB/c, mouse, feces, po. As to the method: 5% DSS (MW-36000-50000) dissolved in drinking water was provided to female BALB/c mice throughout the study duration of 9 days. Single administration of pharmaceutical composition comprising compound A at the dose of 1 mg/kg of compound A, at 10 ml/kg dosing volume was performed orally on day 5. Feces were collected for 96 hours post administration of the composition. Feces collected was analyzed for compound A levels using LC-MS/MS method.

[4] abbreviates: 1 mg/kg bid oral, 6 days, vs placebo.
Setting [5] is: single oral 1 mg/kg, feces collected 96 hours, individual animals, 1 mg/kg.

For orientation: Cmax means the highest concentration seen after dosing. Regarding `O=C(O)CNC(=O)c1c(O)nc2sc3c(n2c1=O)CCCCC3` [compound A, [(2-hydroxy-4-oxo-6,7,8,9-tetrahydro-4H,5H-10-thia-1,4a-diaza-benzo[a]azulene-3-carbonyl)-amino]-acetic acid], in the data set on TNF-α, the “TNFα mRNA expression in colon” value was “reduction”. Moreover, in the data set on TNBS induced colitis (setting [4]), the “Disease activity index (DAI)” value is given as “improving the disease activity index”; the “Extent of colon damage (macroscopy, histopathology)” value is on record as “attenuating the extent of colon damage”; the “Rate of weight loss” value is “reducing rate of weight loss”; the Survival rate entry is on record as “improving survival rate”. Also, the “Therapeutic efficacy (DAI, macroscopy score), oral compared to IP administration” value in the data set on TNBS induced colitis (twice a day, oral even at lower doses) was “better therapeutic efficacy as compared to IP administration”. In addition, the “Effectiveness in ischemic acute kidney injury (AKI)” value in data set [1] is “effective”. For the same molecule, in the data set with DSS induced colitis, the “Disease activity index (DAI)” value was “improving the disease activity index”, the “Extent of colon damage (colitis score)” value is recorded as “attenuating extent of colon damage”, the “Rate of weight loss” value is given as “reducing the rate of weight loss” and the “Tissue architecture (colon histopathology)” value was “preserving tissue architecture”. Further, the “Systemic concentration, oral compared to IP administration” value in data set [2] (equal dose) was “significantly lower systemic concentration”. In [2] (ip, Intraperitoneal), the Cmax came out at 399 ng/mL and the AUC stood at 256 ng·h/mL. Also, in [2] (Per Oral), the Cmax came out at 13.2 ng/mL and the AUC stood at 63.1 ng·h/mL. Further, in the data set on HSP70, the “HSP70 protein expression in colon” value is recorded as “pronounced induction”. For the same molecule, the “INFγ mRNA expression in colon” value in the data set on interferon (INF)-γ is on record as “reduction”. Also, the “IL-10 mRNA expression in colon” value in the data set on interleukin (IL)-10 was “elevation”. For the same molecule, the dose excreted in data set [3] (1 mg/kg, single oral 1 mg/kg, feces collected 96 hours, individual animals, read-out: % Recovery in feces) was determined as 63.9%. The dose excreted in [3] (1 mg/kg, single oral 1 mg/kg, feces collected 96 hours, mean of 5 animals, read-out: Mean % Recovery in feces) stood at 58.7%. For the same molecule, in data set [3] (oral composition, diseased animals), the “Compound A recovered from feces” value is reported as “more than 50%”. Moreover, in data set [3] (setting [5]), the “% Recovery in feces” value was 62.35% and 52.66% and 50.88% and 63.60%; the “Total amount of compound A in feces” value was 15.34 µg and 13.71 µg and 12.63 µg and 12.71 µg and 12.08 µg.
